In patent US7179926B2, “Aryloxyalkylamine NK-1/SSRI inhibitors” (Bristol-Myers Squibb Company, priority 2004, dated 2007):

Key:
[1] = target: T1, human serotonin transporters (Homo sapiens, UniProt P31645); test: Serotonin transporter binding assay ([3H]-citalopram competition, HEK-hSERT cell membranes); conditions: 1 nM [3H]-citalopram, 1 hr at 25° C., read-out: SERT IC50
T1 construct: expressed in transfected cells
Procedure: Serotonin transporter binding assay. HEK-293 cells that stably express human serotonin transporters (HEK-hSERT cells) were grown at 37° C. in 5% CO2 as a monolayer in medium consisting of EMEM supplemented with 10% fetal bovine serum and G418 sulfate (500 μg/ml). To prepare membranes for radioligand binding experiments, cells were rinsed twice with phosphate-buffered saline (138 mM NaCl, 4.1 mM KCl, 5.1 mM Na2PO4, 1.5 mM KH2PO4, 11.1 mM glucose, pH 7.4). Cells were transferred from plates to polypropylene tubes (16×100 mm), centrifuged at 1,200×g for 5 min and were frozen at −80° C. until assay. Following centrifugation, pellets were resuspended by homogenization in buffer consisting of 50 mM Tris (pH 7.7 at 25° C.), 120 mM NaCl and 5 mM KCl and then centrifuged at 32,000×g for 10 min. Following centrifugation, supernatants were discarded and pellets were resuspended in buffer consisting of 50 mM Tris (pH 7.4 at 25° C.), 150 mM NaCl and 5 mM KCl. Membrane homogenates (200 μl/plate) were incubated with 1 nM [^3H]-citalopram (specific activity=85 Ci/mmol) and increasing concentrations of test compounds for 1 hr at 25° C. in a total volume of 250 μl. The assay buffer consisted of 50 mM Tris (pH 7.4 at 25° C.), 120 mM NaCl and 5 mM KCl (pH 7.4 with conc. HCl). Plates were incubated for 1 hr at 25° C., then filtered through 0.5% PEI treated Whatman GF/B filters using a Brandel cell harvester. Filters were washed three times with 3 ml of ice-cold tris wash buffer. Non-specific binding was defined with 10 μM fluoxetine. Amount of radioligand bound in the presence and absence of competitor was analyzed by plotting (−)log drug concentration versus the amount of radioligand specifically bound. The midpoint of the displacement curve (IC50, nM), signifies the potency. Ki values can be calculated using the method of Cheng and Prusoff (Cheng and Prusoff, Biochemical Pharmacology, Vol 22, pp. 3099–3108, Pergamon Press (1973)).

[2] = target: T2, neurokinin-1 (NK-1) receptor (Homo sapiens, UniProt P25103); test: NK-1 Binding assay ([125I] Substance P competition, U373 cell membranes); conditions: Bolton Hunter labeled [125I] Substance P, 30 min at 20° C.
T2 construct: endogenously expresses the neurokinin-1 (NK-1) receptor; endogenous in cells; host or cells: U373 human glioblastoma-astrocytoma cells (membranes)
T2 sequence (P25103 whole entry): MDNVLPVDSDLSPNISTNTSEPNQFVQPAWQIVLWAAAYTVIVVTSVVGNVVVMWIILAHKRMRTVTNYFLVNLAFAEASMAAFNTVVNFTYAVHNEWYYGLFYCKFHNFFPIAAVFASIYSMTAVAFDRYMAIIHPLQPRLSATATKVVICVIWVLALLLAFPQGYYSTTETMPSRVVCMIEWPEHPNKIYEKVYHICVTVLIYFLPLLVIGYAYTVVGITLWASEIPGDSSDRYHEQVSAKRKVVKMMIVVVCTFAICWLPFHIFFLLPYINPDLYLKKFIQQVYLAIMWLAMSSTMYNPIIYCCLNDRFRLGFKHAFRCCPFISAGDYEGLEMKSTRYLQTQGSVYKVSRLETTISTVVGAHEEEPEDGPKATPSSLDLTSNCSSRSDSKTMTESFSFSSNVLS
Procedure: NK-1 Binding assay. U373 cells, a human glioblastoma-astrocytoma cell line that endogenously expresses the neurokinin-1 (NK-1) receptor, were grown in a monolayer culture at 37° C. in 5% CO2 and fed with Minimum Essential Medium (MEM) supplemented with 10% fetal bovine serum. Membranes were prepared as follows: Cells were washed twice with ice-cold phosphate-buffered saline (pH 7.4) and then incubated for 5–10 minutes with ice-cold 10 mM Tris buffer (pH 7.4) containing 5 mM EDTA. Cells were removed from plates, homogenized, and centrifuged at 32,000×g for 20 minutes. The resulting supernatant was discarded, and the pellet resuspended by homogenization in 50 mM Tris buffer (pH 7.4) containing 1 mM EDTA and centrifuged at 32,000×g for 20 minutes. The resulting supernatant was discarded, and the pellet resuspended by homogenization in NK-1 binding assay buffer (50 mM Tris-HCL (pH 7.4), 3 mM MnCl2, 200 μg/ml BSA, 5 μg/ml chymostatin, 40 μg/ml bacitracin and 4 μg/ml leupeptin).
On the day of an experiment the membrane preparation was thawed, homogenized and diluted with NK-1 binding assay buffer to the appropriate concentration. Competition binding assays were performed in 96 well plate format by incubating membranes (5–10 μg/well) with Bolton Hunter labeled [^125I] Substance P, at a concentration of […], and concentrations of drugs ranging from 10000 to 0.01 nM. Samples were incubated for 30 min at 20° C. then filtered through GF/B glass fiber filters (pretreated with 1% polyethyleneimine and 0.3% Triton X-100) using a Brandel cell harvester. The filters were then washed with 10 ml ice cold 50 mM Tris-HCL (pH 7.4) containing 3 mM MgCl2. Non-specific was defined in the presence of 2 μM L-733,060 (a non-peptide NK-1 antagonist). The amount of radioligand bound in the presence and absence of competitor was analyzed by plotting (−)log drug concentration versus the amount of radioligand specifically bound. The midpoint of the displacement curve (IC50, nM), signifies the potency. Ki values can be calculated using the method of Cheng and Prusoff (Cheng and Prusoff, Biochemical Pharmacology, Vol 22, pp. 3099–3108, Pergamon Press (1973)).

T1 sequence (P31645 whole entry): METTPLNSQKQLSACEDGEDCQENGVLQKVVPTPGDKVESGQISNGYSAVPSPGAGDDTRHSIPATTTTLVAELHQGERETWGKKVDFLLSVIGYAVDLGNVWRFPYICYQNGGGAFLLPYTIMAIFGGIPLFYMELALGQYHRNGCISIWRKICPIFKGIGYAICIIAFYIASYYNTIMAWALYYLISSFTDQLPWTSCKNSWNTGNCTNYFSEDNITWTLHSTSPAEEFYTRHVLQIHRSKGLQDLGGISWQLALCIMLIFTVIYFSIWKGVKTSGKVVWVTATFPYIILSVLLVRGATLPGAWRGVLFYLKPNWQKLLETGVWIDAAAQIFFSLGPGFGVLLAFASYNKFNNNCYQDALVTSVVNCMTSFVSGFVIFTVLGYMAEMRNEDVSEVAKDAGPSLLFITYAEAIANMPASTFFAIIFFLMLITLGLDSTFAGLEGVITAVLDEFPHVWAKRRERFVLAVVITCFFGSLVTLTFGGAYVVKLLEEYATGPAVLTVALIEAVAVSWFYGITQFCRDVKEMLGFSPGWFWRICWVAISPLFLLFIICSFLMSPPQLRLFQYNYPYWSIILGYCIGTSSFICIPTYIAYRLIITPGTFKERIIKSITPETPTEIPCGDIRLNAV

IC50 [1] [nM] | IC50 [2] [nM] | SMILES
> 300 | 100 to 300 | NCCC(O)(COCc1cc(C(F)(F)F)cc(C(F)(F)F)c1)c1ccccc1 (racemic) [Example 7, 1-(3,5-bis(trifluoromethyl)benzyloxy)-4-amino-2-phenylbutan-2-ol]
100 to 300 | 1 to 100 | CN(C)CC(O)(COCc1cc(C(F)(F)F)cc(C(F)(F)F)c1)c1ccccc1 (centres unmarked) [Example 1, 1-(3,5-bis(trifluoromethyl)benzyloxy)-3-(dimethylamino)-2-phenylpropan-2-ol]
1 to 100 | 1 to 100 | NCC(O)(COCc1cc(C(F)(F)F)cc(C(F)(F)F)c1)c1ccccc1 (centres unmarked) [Example 2, 1-(3,5-bis(trifluoromethyl)benzyloxy)-3-amino-2-phenylpropan-2-ol]
100 to 300 | 1 to 100 | CNCC(O)(COCc1cc(C(F)(F)F)cc(C(F)(F)F)c1)c1ccccc1 (centres unmarked) [Example 3, 1-(3,5-bis(trifluoromethyl)benzyloxy)-3-(methylamino)-2-phenylpropan-2-ol]
1 to 100 | 1 to 100 | NCCC(O)(COCc1cc(C(F)(F)F)cc(C(F)(F)F)c1)c1ccccc1 (centres unmarked) [Example 4, 1-(3,5-bis(trifluoromethyl)benzyloxy)-4-amino-2-phenylbutan-2-ol]
> 300 | 1 to 100 | CN(C)CCC(O)(COCc1cc(C(F)(F)F)cc(C(F)(F)F)c1)c1ccccc1 (centres unmarked) [Example 5, 1-(3,5-bis(trifluoromethyl)benzyloxy)-4-(dimethylamino)-2-phenylbutan-2-ol]
1 to 100 | 1 to 100 | CNCCC(O)(COCc1cc(C(F)(F)F)cc(C(F)(F)F)c1)c1ccccc1 (centres unmarked) [Example 6, 1-(3,5-bis(trifluoromethyl)benzyloxy)-4-(methylamino)-2-phenylbutan-2-ol]
1 to 100 | 1 to 100 | Cc1ccc(C(O)(CCN)COCc2cc(C(F)(F)F)cc(C(F)(F)F)c2)cc1 (centres unmarked) [Example 9, 1-(3,5-bis(trifluoromethyl)benzyloxy)-4-amino-2-p-tolylbutan-2-ol]
100 to 300 | 1 to 100 | NCCC(O)(COCc1cc(C(F)(F)F)cc(C(F)(F)F)c1)c1ccc(Cl)c(Cl)c1 (centres unmarked) [Example 10, 1-(3,5-bis(trifluoromethyl)benzyloxy)-4-amino-2-(3,4-dichlorophenyl)butan-2-ol]
1 to 100 | 100 to 300 | NCCC(O)(COCc1cc(C(F)(F)F)cc(C(F)(F)F)c1)c1ccc2ccccc2c1 (centres unmarked) [Example 11, 1-(3,5-bis(trifluoromethyl)benzyloxy)-4-amino-2-(naphthalen-2-yl)butan-2-ol]
1 to 100 | 1 to 100 | NCCC(O)(COCc1cc(C(F)(F)F)cc(C(F)(F)F)c1)c1cccc(F)c1 (centres unmarked) [Example 12, 1-(3,5-bis(trifluoromethyl)benzyloxy)-4-amino-2-(3-fluorophenyl)butan-2-ol]
1 to 100 | 1 to 100 | Cc1cc(C(O)(CCN)COCc2cc(C(F)(F)F)cc(C(F)(F)F)c2)ccc1F (centres unmarked) [Example 13, 1-(3,5-bis(trifluoromethyl)benzyloxy)-4-amino-2-(4-fluoro-3-methylphenyl)butan-2-ol]
1 to 100 | 1 to 100 | COc1cccc(C(O)(CCN)COCc2cc(C(F)(F)F)cc(C(F)(F)F)c2)c1 (centres unmarked) [Example 14, 1-(3,5-bis(trifluoromethyl)benzyloxy)-4-amino-2-(3-methoxyphenyl)butan-2-ol]
1 to 100 | 1 to 100 | NCCC(O)(COCc1cc(C(F)(F)F)cc(C(F)(F)F)c1)c1ccc(F)c(F)c1 (centres unmarked) [Example 15, 1-(3,5-bis(trifluoromethyl)benzyloxy)-4-amino-2-(3,4-difluorophenyl)butan-2-ol]
> 300 | > 300 | CN(C)c1ccc(C(O)(CCN)COCc2cc(C(F)(F)F)cc(C(F)(F)F)c2)cc1 (centres unmarked) [Example 16, 1-(3,5-bis(trifluoromethyl)benzyloxy)-4-amino-2-(4-(dimethylamino)phenyl)butan-2-ol]
1 to 100 | 1 to 100 | Cc1cccc(C(O)(CCN)COCc2cc(C(F)(F)F)cc(C(F)(F)F)c2)c1 (centres unmarked) [Example 17, 1-(3,5-bis(trifluoromethyl)benzyloxy)-4-amino-2-m-tolylbutan-2-ol]
1 to 100 | 1 to 100 | Cc1cc(C)cc(C(O)(CCN)COCc2cc(C(F)(F)F)cc(C(F)(F)F)c2)c1 (centres unmarked) [Example 18, 1-(3,5-bis(trifluoromethyl)benzyloxy)-4-amino-2-(3,5-dimethylphenyl)butan-2-ol]
100 to 300 | 1 to 100 | NCCC(O)(COCc1cc(C(F)(F)F)cc(C(F)(F)F)c1)c1cc(F)cc(F)c1 (centres unmarked) [Example 19, 1-(3,5-bis(trifluoromethyl)benzyloxy)-4-amino-2-(3,5-difluorophenyl)butan-2-ol]
1 to 100 | 100 to 300 | COc1ccc(C(O)(CCN)COCc2cc(C(F)(F)F)cc(C(F)(F)F)c2)cc1 (centres unmarked) [Example 20, 1-(3,5-bis(trifluoromethyl)benzyloxy)-4-amino-2-(4-methoxyphenyl)butan-2-ol]
1 to 100 | 1 to 100 | NCCC(O)(COCc1cc(C(F)(F)F)cc(C(F)(F)F)c1)c1cccc(Cl)c1 (centres unmarked) [Example 21, 1-(3,5-bis(trifluoromethyl)benzyloxy)-4-amino-2-(3-chlorophenyl)butan-2-ol]
1 to 100 | 100 to 300 | Cc1ccc(C(O)(CCN)COCc2cc(C(F)(F)F)cc(C(F)(F)F)c2)c2ccccc12 (centres unmarked) [Example 22, 1-(3,5-bis(trifluoromethyl)benzyloxy)-4-amino-2-(4-methylnaphthalen-1-yl)butan-2-ol]
1 to 100 | 1 to 100 | COc1ccc(C(O)(CCN)COCc2cc(C(F)(F)F)cc(C(F)(F)F)c2)cc1F (centres unmarked) [Example 23, 1-(3,5-bis(trifluoromethyl)benzyloxy)-4-amino-2-(3-fluoro-4-methoxyphenyl)butan-2-ol]
100 to 300 | 1 to 100 | NCCC(O)(COCc1cc(C(F)(F)F)cc(C(F)(F)F)c1)c1cc(F)cc(Cl)c1 (centres unmarked) [Example 24, 1-(3,5-bis(trifluoromethyl)benzyloxy)-4-amino-2-(3-chloro-5-fluorophenyl)butan-2-ol]
100 to 300 | 1 to 100 | COc1ccc(F)cc1C(O)(CCN)COCc1cc(C(F)(F)F)cc(C(F)(F)F)c1 (centres unmarked) [Example 25, 1-(3,5-bis(trifluoromethyl)benzyloxy)-4-amino-2-(5-fluoro-2-methoxyphenyl)butan-2-ol]
1 to 100 | 1 to 100 | Cc1cccc(C(O)(CCN)COCc2cc(C(F)(F)F)cc(C(F)(F)F)c2)c1C (centres unmarked) [Example 26, 1-(3,5-bis(trifluoromethyl)benzyloxy)-4-amino-2-(2,3-dimethylphenyl)butan-2-ol]
1 to 100 | 100 to 300 | COc1ccc(OC)c(C(O)(CCN)COCc2cc(C(F)(F)F)cc(C(F)(F)F)c2)c1 (centres unmarked) [Example 27, 1-(3,5-bis(trifluoromethyl)benzyloxy)-4-amino-2-(2,5-dimethoxyphenyl)butan-2-ol]
– | 100 to 300 | NCCC(O)(CNCc1cc(C(F)(F)F)cc(C(F)(F)F)c1)c1ccccc1 (centres unmarked) [Example 81]
